Data published in paper PMC12523804, “Evaluation of molecular mechanisms of (Z)-3-(pentadec-10′-enyl)-catechol (litreol) and synthetic derivatives as inhibitors of human leukotriene biosynthesis” (Redox Biology, 2025).

Tests used:
[1] = biological target: T1, 5-LO/FLAP (Homo sapiens, UniProt P09917); assay: Subcellular localization of 5-LO and FLAP by immunofluorescence microscopy in HEK293 cells; assay type: cell-based; conditions: HEK293 cells expressing 5-LO and FLAP, 3 μM (Fig. 4D) or 10 μM (method)
T1 construct: expressed in transfected cells; host or cells: HEK-293, stably transfected
T1 sequence (P09917 1-674): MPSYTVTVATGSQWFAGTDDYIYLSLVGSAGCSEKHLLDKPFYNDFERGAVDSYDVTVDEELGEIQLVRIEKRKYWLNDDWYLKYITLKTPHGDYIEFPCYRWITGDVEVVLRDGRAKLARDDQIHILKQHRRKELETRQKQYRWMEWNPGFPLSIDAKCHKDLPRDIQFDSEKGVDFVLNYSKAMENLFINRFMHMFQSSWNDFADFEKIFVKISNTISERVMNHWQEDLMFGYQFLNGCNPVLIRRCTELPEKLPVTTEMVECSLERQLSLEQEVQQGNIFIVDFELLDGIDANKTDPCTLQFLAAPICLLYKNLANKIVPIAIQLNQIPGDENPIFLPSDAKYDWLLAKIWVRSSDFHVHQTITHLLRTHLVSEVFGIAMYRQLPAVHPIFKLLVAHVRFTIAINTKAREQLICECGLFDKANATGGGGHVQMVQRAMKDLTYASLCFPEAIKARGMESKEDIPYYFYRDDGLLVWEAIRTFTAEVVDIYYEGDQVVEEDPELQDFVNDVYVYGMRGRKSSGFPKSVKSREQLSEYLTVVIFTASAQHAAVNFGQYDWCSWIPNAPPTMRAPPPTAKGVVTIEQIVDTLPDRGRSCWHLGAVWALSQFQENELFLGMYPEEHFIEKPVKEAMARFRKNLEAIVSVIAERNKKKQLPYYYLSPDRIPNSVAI
Method: Subcellular localization of 5-LO and FLAP was analyzed by immunofluorescence (IF) microscopy. In brief, HEK-293 cells expressing 5-LO/FLAP were seeded onto acid-washed (50 % sulfuric acid) and poly-L-lysine (0.01 %)-coated glass coverslips and cultured for 48 h at 37 °C until ∼60 % confluency. Cells were pre-incubated with 10 μM of compounds or vehicle (0.1 % DMSO) for 10 min before stimulation with 2.5 μM A23187 for 20 min at 37 °C. After fixation with 4 % paraformaldehyde solution, followed by permeabilization by using 50 mM ammonium chloride and acetone (3 min, 4 °C), cells were incubated with 10 % non-immune goat serum blocking solution for 1 h. Then, cells were incubated over night with mouse monoclonal anti-5-LO antibody (1:100) and rabbit polyclonal anti-FLAP antibody ([…]). The coverslips were intensively washed with PBS before staining with the fluorophore-labeled secondary antibodies Alexa Fluor 488 goat anti-rabbit (1:500) and Alexa Fluor 555 goat anti-mouse (1:500) for 20 min in the dark. The coverslips were mounted on glass slides with Mowiol containing 2.5 % n-propyl gallate and 4,6-diamidin-2-phenylindol (DAPI; Invitrogen, Carlsbad, CA), a staining for nuclear DNA. Samples were analyzed by a Zeiss Axio-vert 200 M microscope, and a Plan Neofluar _ 100/1.30 Oil (DIC III) objective (Carl Zeiss, Jena, Germany). […]

[2] = system: 5-LO; parameters: method as in PMID 32220788; conditions: read-out: IC50 against 5-LO; cited from earlier work
[3] = biological target: T2, 5-LO (Homo sapiens, UniProt P09917); assay: 5-LO product formation in intact human PMNL (neutrophils); assay type: cell-based; parameters: endogenous in cells; host or cells: human PMNL from peripheral blood of healthy volunteers; conditions: for IC50: intact human PMNL
T2 sequence (P09917 1-674): T1 sequence (P09917 1-674)
Method: PMNL and monocytes were isolated from human peripheral blood of adult healthy volunteers, with consent, obtained from the Institute of Transfusion Medi-cine, University Hospital Jena (Germany). PMNL were immediately isolated by dextran sedi-mentation, centrifugation on Nycoprep cushions, and hypotonic lysis of erythrocytes, as described. PMNL viability was analyzed by trypan blue exclusion with a Vi-cell counter (Beckmann Coulter GmbH, Krefeld). HEK-293 cells were grown in DMEM/High Glucose (4.5 g/L) medium supplemented with heat-inactivated fetal calf serum (FCS, 10 %, vv_1), 100 U/mLpenicillin, and 100 µg/mL streptomycin at 37 °C in a 5 % CO2 incubator. HEK-293 cells were stably transfected with 5-LO and FLAP as validated experimental cell-based model for studying the regulation of 5-LO [28]. None of the cell lines used in this study were authenticated.
Freshly isolated human PMNL (5 × 10^6) were resuspended in 1 mL PBS buffer containing 1 mg/mL glucose (PG buffer). […] After 10 min at 37 °C, the reaction was stopped with 1 mL of methanol for 10 min on ice and LO products formed and released in the supernatants were extracted and analyzed by HPLC. In detail, after centrifugation (800g, 10 min, room temperature) the samples were applied to C-18 solid-phase extraction columns (100 mg; IST, Mid Glamorgan, United Kingdom), preconditioned with 1 mL methanol and 1 mL water. The columns were washed with 1 mL water and 1 mL water/methanol (75/25, vol/vol) and 5-LO metabolites were eluted with 300 μL methanol. The extract was then diluted with 120 μL water, and 100 μL diluted extract were analyzed by HPLC using a C-18 Radial-Pak column (Waters) eluted with methanol/water/acetic acid 75/25/0.1 (vol/vol/vol) at a flow rate of 1.2 mL/min. Amounts of different metabolites were determined by peak area integration. 5-LO products analyzed include LTB4 and its two all-trans isomers, 5(S)-hydroxy-6-trans-8,11,14-cis-eicosatetraenoic acid (5-HETE), and 5(S)-hydroper-oxy-6-trans-8,11,14-cis-eicosatetraenoic acid (5-HpETE). 5-HETE and 5-HpETE coelute as one major peak, and the integration of this peak represented both eicosanoids.

[4] = Cell-based A23187 (IC50 of 5-LO product formation), […] A23187, 10 min
[5] = Cell-based A23187 + AA (IC50 of 5-LO product formation), […] A23187 plus 20 μM AA, 10 min

Structure (SMILES)	A23187-induced 5-LO translocation / colocalization with FLAP [1]	IC50 [2] [nM]	IC50 [3, 4] [nM]	IC50 [3, 5] [nM]	fold greater potency compared to hydrogenated analogue CS ([3]; comparison of IC50 values (neutrophils and cell-free))
CCCC/C=C\CCCCCCCCCc1cccc(O)c1O [CI, (Z)-3-(pentadec-10′-enyl)-catechol]	able to block	2090	260	90	2.5- to 3 fold
CCCCCCCCCCCCCCCc1cccc(O)c1O [CS, 3-n-pentadecylcatechol]	not successful	2740	800 ± 500	70	–
